These results are taken from patent publication US11903994B2, “Dosing regimens” (Apellis Pharmaceuticals, Inc., priority 2015, dated 2024).

Non-standard residues stand in square brackets, D forms with d. Trp(5-F) = N[C@@H](Cc1c[nH]c2ccc(F)cc12)C(=O)O; Trp(6-F) = N[C@@H](Cc1c[nH]c2cc(F)ccc12)C(=O)O; Bpa = N[C@@H](Cc1ccc(C(=O)c2ccccc2)cc1)C(=O)O; 1Nal = N[C@@H](Cc1cccc2ccccc12)C(=O)O; 2Nal = N[C@@H](Cc1ccc2ccccc2c1)C(=O)O; Igl = N[C@H](C(=O)O)C1Cc2ccccc2C1

Series [1] can be described thus: Inhalation studies, single and repeated dosing. The series is classed as in vivo, cynomolgus monkey. As to conditions: inhaled CA28. The method, then: (§1) Inhalation studies of single dose or repeated dosing were conducted in dog and cynomolgus monkey. […] These doses were 25 mg/kg/d in a 7 day repeated dose study in the dog, 80 mg/kg in a single dose study in the monkey, and 30 mg/kg/day in a 14 day repeated dose in the monkey.

The nature of series [2]: Inhalation study, repeated dosing. The format is in vivo, dog. The note with it: 25 mg/kg/d, 7 day repeated dose, inhaled CA28. The method, then: as §1
A short description of series [3]: Phase 1 single and multiple ascending dose trial, inhaled (nebulized), healthy volunteers. The format is in vivo, human. The method, then:
In the single ascending dose part of the trial, 16 subjects were enrolled in four cohorts of four subjects each.
Four subjects were enrolled in the first cohort of the multiple ascending dose part of the trial. These subjects were to receive 14 consecutive days of treatment with a 60 mg/day dose of the drug. […] The trial was paused and subsequently resumed, with subjects receiving 30 mg/day. […] The trial was then terminated.

The test system of a further series is complement activation. As to conditions: relative to compstatin amidated at the C-terminus; published data; cited from earlier work.

In the case of `CC[C@H](C)[C@H](NC(C)=O)C(=O)N[C@H]1CSSC[C@@H](C(=O)N[C@H](C(N)=O)[C@@H](C)O)NC(=O)[C@H](CCCNC(=N)N)NC(=O)[C@H](Cc2cnc[nH]2)NC(=O)[C@H](C)NC(=O)CNC(=O)[C@H](Cc2c[nH]c3ccccc23)NC(=O)[C@H](CC(=O)O)NC(=O)[C@H](CCC(N)=O)NC(=O)[C@H](Cc2cn(C)c3ccccc23)NC(=O)[C@H](C(C)C)NC1=O` [CA28], the “findings at the highest inhaled dose tested” value in series [1] (30 mg/kg/day, 14 day repeated dose) is reported as “no drug-related findings”; in series [1] (80 mg/kg, single dose) it was “no drug-related findings”; in series [2] it was “no drug-related findings”. The “adverse event possibly related to the pharmacology of the drug” value in series [3] (inhaled CA28 30 mg/day, after 10 days of treatment) is “Another subject developed signs and symptoms consistent with a potential bacterial infection”; in series [3] (inhaled CA28 60 mg/day, following nine days of treatment), “one subject developed signs and symptoms consistent with a potential bacterial infection”.
For the compound “Ac-ICV(1-Nal)QDWGAHRCT-COOH (Ac-ICV[1Nal]QDWGAHRCT-OH; not fully specified (bridges); printed as Ac-ICV(1-Nal)QDWGAHRCT-COOH; cysteine pairing not given here) [Ac V4(1-Nal)/H9A-OH]”, the Activity over compstatin in the series with complement activation is recorded as 30xmore.
As for “Ac-ICV(2-Nal)QDWGAHRCT-CONH2 (Ac-ICV[2Nal]QDWGAHRCT-NH2; not fully specified (bridges); printed as Ac-ICV(2-Nal)QDWGAHRCT-CONH2; cysteine pairing not given here) [Ac-V4(2-Nal)/H9A]”, the Activity over compstatin with complement activation is 99xmore.
“Ac-ICV(2-Nal)QDWGAHRCT-COOH (Ac-ICV[2Nal]QDWGAHRCT-OH; not fully specified (bridges); printed as Ac-ICV(2-Nal)QDWGAHRCT-COOH; cysteine pairing not given here) [Ac V4(2-Nal)/H9A-OH]”: the Activity over compstatin in the series with complement activation is 38xmore.
Regarding “Ac-ICV(2-lgl)QDWGAHRCT-CONH2 (Ac-ICV[Igl]QDWGAHRCT-NH2; not fully specified (bridges); printed as Ac-ICV(2-lgl)QDWGAHRCT-CONH2; cysteine pairing not given here) [Ac-V42lgl/H9A]”, in the series with complement activation, the Activity over compstatin was 39xmore.
Regarding “Ac-ICV(2-lgl)QDWGAHRCT-COOH (Ac-ICV[Igl]QDWGAHRCT-OH; not fully specified (bridges); printed as Ac-ICV(2-lgl)QDWGAHRCT-COOH; cysteine pairing not given here) [Ac-V42lgl/H9A-OH]”, the Activity over compstatin with complement activation is listed as 37xmore.
Take “Ac-ICV(5-methyl-W)QDWGAHRCT-CONH2 [Ac-V4(5-MeW)/H9A]”: the Activity over compstatin in the series on complement activation was 67xmore.
Consider “Ac-ICV(5fW)QDWGAHRCT-CONH2 [Ac-V4(5fW)/H9A]”, for which the Activity over compstatin in the series on complement activation is on record as 31xmore.
Turning to “Ac-ICV(Bpa)QDWGAHRCT-CONH2 (Ac-ICV[Bpa]QDWGAHRCT-NH2; not fully specified (bridges); printed as Ac-ICV(Bpa)QDWGAHRCT-CONH2; cysteine pairing not given here) [Ac-V4(Bpa)/H9A]”, in the series with complement activation, the Activity over compstatin is given as 86xmore.
Regarding “Ac-ICV(Bpa)QDWGAHRCT-COOH (Ac-ICV[Bpa]QDWGAHRCT-OH; not fully specified (bridges); printed as Ac-ICV(Bpa)QDWGAHRCT-COOH; cysteine pairing not given here) [Ac-V4(Bpa)/H9A-OH]”, the Activity over compstatin in the series with complement activation is reported as 49xmore.
For the compound “Ac-ICVDhtQDWGAHRCT-COOH [Ac-V4Dht/H9A-OH]”, in the series on complement activation, the Activity over compstatin is given as 5xmore.
In the case of Ac-ICVVQDWGHHRCT-CONH2 [Ac-compstatin], in the series with complement activation, the Activity over compstatin is 3xmore.
On to “Ac-ICVWQD(5fW)GAHRCT-CONH2 [Ac-V4W/W7(5fW)/H9A]”, for which the Activity over compstatin in the series on complement activation is 121xmore.
In the case of Ac-ICVWQDWGAHRCT-CONH2 [Ac-V4W/H9A], the Activity over compstatin in the series on complement activation is 45xmore.
Turning to “Ac-ICVWQDWGAHRCdT-COOH [Ac-V4W/H9A/T13dT-OH]”, the Activity over compstatin with complement activation is given as 55xmore.
With Ac-ICVYQDWGAHRCT-CONH2 [Ac-V4Y/H9A], the Activity over compstatin in the series on complement activation was 14xmore.
Turning to “H-GICV(5fW)QD(5fW)GAHRCTN-COOH (H-GICV[Trp(5-F)]QD[Trp(5-F)]GAHRCTN-OH; not fully specified (bridges); cysteine pairing not given here) [G/V4(5f-W)/W7(5fW)/H9A + N-OH]”, in the series on complement activation, the Activity over compstatin is 112xmore.
“H-GICV(6fW)QD(6fW)GAHRCTN-COOH (H-GICV[Trp(6-F)]QD[Trp(6-F)]GAHRCTN-OH; not fully specified (bridges); cysteine pairing not given here) [+G/V4(6fW)/W7(6fW)H9A + N-OH]”: the Activity over compstatin with complement activation is listed as 126xmore.
